pIC50: −log10 of the molar value. Read-outs that look alike come from different tables or passages of the source.
Target: T1, APOL1 G1 (Homo sapiens, UniProt O14791, I384M/S342G)
T1 sequence (O14791 28-398 S342G/I384M): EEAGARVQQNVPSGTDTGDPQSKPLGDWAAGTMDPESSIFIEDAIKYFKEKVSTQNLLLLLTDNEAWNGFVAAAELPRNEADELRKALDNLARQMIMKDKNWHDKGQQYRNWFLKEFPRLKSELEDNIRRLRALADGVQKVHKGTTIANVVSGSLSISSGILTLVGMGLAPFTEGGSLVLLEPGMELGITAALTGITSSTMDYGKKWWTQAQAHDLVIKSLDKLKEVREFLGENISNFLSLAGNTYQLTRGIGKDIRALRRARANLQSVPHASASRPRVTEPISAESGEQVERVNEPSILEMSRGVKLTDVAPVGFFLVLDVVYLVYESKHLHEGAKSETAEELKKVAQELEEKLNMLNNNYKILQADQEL
Assay: MultiTox-Fluor Multiplex Cytotoxicity Assay, tet-inducible APOL1 G1 T-REx-HEK293 cells
Assay type: cell-based
Parameters: expressed in transfected cells; host or cells: T-REx HEK293, clone G1 DC3.25 (pAAVS1-Puro-APOL1 G1)
Conditions: for IC90: read-out: Multi-Tox Assay IC90; for Emax: read-out: Multi-Tox Assay Max Activity (%)
How it was run: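 Over 24 h at 37 °C, compounds (10-point 3-fold series from 10 µM, duplicate) were co-incubated with 50 ng/mL tetracycline inducing APOL1 G1 in T-REx-HEK293 cells. Viability/cytotoxicity measured by MultiTox-Fluor as dead-to-live fluorescence ratio, expressed as percent of control between uninduced and induced wells and fitted.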

[1] = HEK293, Multi-Tox Assay, APOL1 variant (G0/G1/G2) of the HEK293 cells not given
[2] = Multi-Tox Assay, APOL1 variant not given
[3] = Multi-Tox Assay, APOL1 variant (G0/G1/G2) not stated in Table 46
[4] = Multi-Tox Assay, APOL1 variant not stated in Table 46

Row | SMILES | IC90 [1] [nM] | Multi-Tox Assay Max Activity (%) [2] [%] | further results
1 | C[C@H]1C[C@@]2(C[C@@H](c3cccc4cn[nH]c34)N1)OCCc1cc(Cl)sc12 (racemic) [Compound 168] | > 500 | 89.0 | –
2 | C[C@@H]1CC2(C[C@H](C)N1)OCCc1cc(C3CC(F)(F)C3)sc12 (single isomer, unassigned) [Compound 198] | 50 to 500 | – | Emax [2]: 98.7%
3 | CC(CO)Cn1cc([C@@H]2C[C@]3(C[C@H](C)N2)OC[C@@H](O)c2cc(Cl)sc23)nn1 (stereo partly drawn) [Compound 256] | 50 to 500 | 96.0 | –
4 | C[C@H]1C[C@@]2(C[C@@H](c3cn(Cc4ccc(CO)cc4)nn3)N1)OC[C@@H](O)c1cc(Cl)sc12 [Compound 224, (2'S,4S,6'S,7S)-2-chloro-2'-[1-[[4-(hydroxymethyl)phenyl]methyl]triazol-4-yl]-6'-methyl-spiro[4,5-dihydrothieno[2,3-c]pyran-7,4'-piperidine]-4-ol] | 50 to 500 | – | Emax [2]: 99%
5 | CCOc1cc([C@@H]2C[C@]3(C[C@H](C)N2)OCCc2cc(Cl)sc23)ccc1O (racemic) [Compound 102] | < 50 | 99.8 | –
6 | C[C@H]1C[C@@]2(C[C@@H](c3ccc(O)cn3)N1)OCCc1cc(Cl)sc12 (racemic) [Compound 59] | < 50 | 99.3 | –
7 | CC(=O)NC1([C@@H]2C[C@]3(C[C@H](C)N2)OCCc2cc(Cl)sc23)CC1 [Compound 379, N-[1-[(2'S,6'S,7S)-2-chloro-6'-methyl-spiro[4,5-dihydrothieno[2,3-c]pyran-7,4'-piperidine]-2'-yl]cyclopropyl]acetamide] | – | – | IC90 [3]: > 500 nM; Multi-Tox Assay Max Activity (%) [4]: 94.0%
8 | C[C@H]1C[C@@]2(C[C@@H](c3cn(CC4CCCCO4)nn3)N1)OC[C@@H](O)c1cc(Cl)sc12 (stereo partly drawn) [Compound 227] | 50 to 500 | 100.0 | –
9 | COCc1cc([C@@H]2C[C@]3(C[C@H](C)N2)OCCc2cc(Cl)sc23)no1 (racemic) [Compound 106] | < 50 | 99.7 | –
10 | COc1cccc(Cn2cc([C@@H]3C[C@]4(C[C@H](C)N3)OCC(F)(F)c3cc(Cl)sc34)nn2)c1 [Compound 319] | 50 to 500 | 95.0 | –
11 | C[C@H]1C[C@@]2(C[C@@H](c3cn(C)nn3)N1)OC[C@H](O)c1cc(C(F)(F)F)sc12 [Compound 180] | < 50 | – | Emax [2]: 99.8%
12 | C[C@H]1C[C@@]2(C[C@@H](c3cn(Cc4ccccn4)nn3)N1)OCC(F)(F)c1cc(Cl)sc12 [Compound 332] | 50 to 500 | 96.0 | –
13 | Cn1cc(C2CC3(CC(C4CCC4)N2)OCCc2cc(C(F)(F)F)sc23)nn1 (stereo not drawn) [Compound 192] | 50 to 500 | – | Emax [2]: 99%
14 | C[C@H]1C[C@@]2(C[C@@H](c3cn(CC4CCOC4)nn3)N1)OC[C@@H](O)c1cc(Cl)sc12 (stereo partly drawn) [Compound 269] | 50 to 500 | – | –
15 | Cc1cccc(OCC(O)Cn2cc([C@@H]3C[C@]4(C[C@H](C)N3)OCC(F)(F)c3cc(Cl)sc34)nn2)c1 (stereo partly drawn) [Compound 303] | 50 to 500 | – | –
16 | C[C@H]1C[C@@]2(C[C@@H](c3ncc(C(F)(F)F)[nH]3)N1)OCCc1cc(Cl)sc12 (racemic) [Compound 165] | > 500 | 92.0 | –
17 | C[C@H]1C[C@@]2(C[C@@H](c3cn(CC4CCCCO4)nn3)N1)OCC(F)(F)c1cc(Cl)sc12 (stereo partly drawn) [Compound 343] | 50 to 500 | 97.0 | –
18 | C[C@H]1C[C@@]2(C[C@@H](c3cn(Cc4ccc(C#N)nc4)nn3)N1)OCC(F)(F)c1cc(Cl)sc12 [Compound 352] | 50 to 500 | – | –
19 | COc1ccc([C@@H]2C[C@]3(C[C@H](C)N2)OCCc2cc(Cl)sc23)cc1C#N (racemic) [Compound 62] | < 50 | – | Emax [2]: 99.3%
20 | C[C@H]1C[C@@]2(C[C@@H](c3cn(Cc4ccccc4S(C)(=O)=O)nn3)N1)OCC(F)(F)c1cc(Cl)sc12 [Compound 347] | 50 to 500 | 96.0 | –
21 | C[C@@H]1CC2(C[C@H](C)N1)OCCc1sc(C(F)(F)F)cc12 (single isomer, unassigned) [Compound 196] | 50 to 500 | – | Emax [2]: 99%
22 | Cc1nc([C@@H]2C[C@]3(C[C@H](C)N2)OCCc2cc(Cl)sc23)c[nH]1 (racemic) [Compound 156] | > 500 | 93.0 | –
23 | C[C@H]1C[C@@]2(C[C@@H](c3cn(C)nn3)N1)OCC(F)(F)c1cc(Cl)sc12 [Compound 183, (2'S, 6'S, 7S)-2-chloro-4,4-difluoro-2'-methyl-6'-(1-methyltriazol-4-yl)spiro[5H-thieno[2,3-c]pyran-7,4'-piperidine]] | < 50 | – | Emax [2]: 99.5%

Row | SMILES | IC90 [1] [nM] | Multi-Tox Assay Max Activity (%) [2] [%] | further results
24 | C[C@H]1C[C@@]2(C[C@@H](c3cn(Cc4cnccn4)nn3)N1)OCC(F)(F)c1cc(Cl)sc12 [Compound 317] | 50 to 500 | 98.0 | –
25 | C[C@H]1C[C@@]2(C[C@@H](c3cn(CCC(C)(C)O)nn3)N1)OC[C@@H](O)c1cc(Cl)sc12 [Compound 252] | 50 to 500 | 100.0 | –
26 | COc1cccc(Cn2cc([C@@H]3C[C@]4(C[C@H](C)N3)OC[C@@H](O)c3cc(Cl)sc34)nn2)c1 [Compound 278] | 50 to 500 | 100.0 | –
27 | C[C@H]1C[C@@]2(C[C@@H](c3cn(Cc4ccc(O)cc4)nn3)N1)OC[C@@H](O)c1cc(Cl)sc12 [Compound 259] | 50 to 500 | 100.0 | –
28 | Cc1nc(Cn2cc([C@@H]3C[C@]4(C[C@H](C)N3)OCC(F)(F)c3cc(Cl)sc34)nn2)oc1C [Compound 337] | 50 to 500 | – | –
29 | COCCn1cc([C@@H]2C[C@]3(C[C@H](C)N2)OCC(F)(F)c2cc(Cl)sc23)nn1 [Compound 323] | 50 to 500 | 100.0 | –
30 | Cc1cccc(OCC(O)Cn2cc([C@@H]3C[C@]4(C[C@H](C)N3)OC[C@@H](O)c3cc(Cl)sc34)nn2)c1 (stereo partly drawn) [Compound 260] | 50 to 500 | – | –
31 | Cc1nc(Cn2cc([C@@H]3C[C@]4(C[C@H](C)N3)OC[C@@H](O)c3cc(Cl)sc34)nn2)oc1C [Compound 297] | 50 to 500 | – | –
32 | C[C@H]1C[C@@]2(C[C@@H](c3cn(CC4CCC4)nn3)N1)OC[C@@H](O)c1cc(Cl)sc12 [Compound 250] | 50 to 500 | 95.0 | –
33 | C[C@H]1C[C@@]2(C[C@@H](c3cn(Cc4nc5ncccc5[nH]4)nn3)N1)OCC(F)(F)c1cc(Cl)sc12 [Compound 346] | 50 to 500 | – | –
34 | CC1CC2(CC(c3ccc4[nH]ncc4c3)N1)OCCc1cc(Cl)sc12 (stereo not drawn) [Compound 35] | < 50 | 99.3 | –
35 | C[C@H]1C[C@@]2(C[C@@H](c3cn(CC4CCOC4)nn3)N1)OCC(F)(F)c1cc(Cl)sc12 (stereo partly drawn) [Compound 311] | 50 to 500 | – | –
36 | C[C@H]1C[C@@]2(C[C@@H](c3cnc4n3CCOC4)N1)OCCc1cc(Cl)sc12 (racemic) [Compound 149] | > 500 | 95.7 | –
37 | C[C@H]1C[C@@]2(C[C@@H](c3c[nH]cn3)N1)OCCc1cc(Cl)sc12 (racemic) [Compound 85] | < 50 | – | Emax [2]: 99.3%
38 | Cc1nc([C@@H]2C[C@]3(C[C@H](C)N2)OCCc2cc(Cl)sc23)[nH]c1C (racemic) [Compound 150] | > 500 | 96.3 | –
39 | C[C@H]1C[C@@]2(C[C@@H](c3cn(CC(F)F)nn3)N1)OC[C@@H](O)c1cc(Cl)sc12 [Compound 283] | 50 to 500 | 101.0 | –
40 | COc1ccc2[nH]c([C@@H]3C[C@]4(C[C@H](C)N3)OCCc3cc(Cl)sc34)cc2n1 (racemic) [Compound 84] | < 50 | – | Emax [2]: 99.8%
41 | C[C@H]1C[C@@]2(C[C@@H](c3cn(CC4CCC(=O)NC4)nn3)N1)OCC(F)(F)c1cc(Cl)sc12 (stereo partly drawn) [Compound 368] | – | – | IC90 [3]: > 500 nM; Multi-Tox Assay Max Activity (%) [4]: 96.0%; pIC50 (Multi-Tox Assay, IP50 = IC50 for cell proliferation, APOL1 variant not stated in Table 46): 6.30 to 7.30
42 | C[C@H]1C[C@@]2(C[C@@H](c3cn(CC4(O)CC4)nn3)N1)OC[C@@H](O)c1cc(Cl)sc12 [Compound 233] | 50 to 500 | 100.0 | –
43 | C[C@H]1C[C@@]2(C[C@@H](c3cn(Cc4ccccc4S(C)(=O)=O)nn3)N1)OC[C@@H](O)c1cc(Cl)sc12 [Compound 231] | 50 to 500 | 95.0 | –
44 | Cc1nn(CCO)cc1[C@@H]1C[C@]2(C[C@H](C)N1)OCCc1cc(Cl)sc12 (racemic) [Compound 158] | > 500 | 90.4 | –
45 | C[C@H]1C[C@@]2(C[C@@H](c3ccc(=O)n(C)c3)N1)OCCc1cc(Cl)sc12 (racemic) [Compound 80] | < 50 | – | Emax [2]: 99.7%
46 | COc1ccc(C2CC3(CC(C)N2)OCCc2cc(Cl)sc23)nc1 (stereo not drawn) [Compound 34] | < 50 | – | –

Reference: EP4810040A2, “INHIBITORS OF APOL1 AND METHODS OF USING SAME” (priority 2020, dated 2022)
